One experiment addresses T1, human A2B-receptor (Homo sapiens, UniProt P29275).
T1 construct: purchased Receptor Biology USA via Perkin Elmer Life Sciences, Cologne, Germany; host or cells: HEK cells (membranes)
T1 sequence (P29275 1-332): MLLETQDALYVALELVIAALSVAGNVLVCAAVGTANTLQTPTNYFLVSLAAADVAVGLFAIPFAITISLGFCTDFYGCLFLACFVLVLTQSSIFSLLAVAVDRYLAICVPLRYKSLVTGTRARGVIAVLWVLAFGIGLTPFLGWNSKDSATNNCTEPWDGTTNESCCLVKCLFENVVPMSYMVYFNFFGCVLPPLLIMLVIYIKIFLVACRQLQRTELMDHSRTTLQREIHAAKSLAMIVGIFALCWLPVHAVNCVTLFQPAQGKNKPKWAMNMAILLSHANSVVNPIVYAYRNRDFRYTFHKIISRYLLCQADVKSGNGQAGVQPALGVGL
Description: Receptor binding assay with [3H]ZM241385 on recombinant A2B-adenosine receptors in HEK cells. The note with it: for pKi: Table 2, [3H]ZM241385, read-out: A2B K1. The source says: (§1) The data of the biological tests that are cited below results from radioligand-binding assays on A1, A2A, A2B and A3 adenosine receptors (ARs).
(§2) The following selective radioligands are used in the biological tests: • [^3H]CCPA (for A1 ARs) [Klotz et al., Naunyn-Schmiedeberg's Arch. Pharmacol., 340, 679 (1989)] • [^3]MSX-2 (for A2A ARs) [Muiller et al., Eur. J. Pharm. Sci., 10, 259 (2000)] • [^3H]ZM241385 (for A2B ARs_[X.-D. Ji, K. A. Jacobson, Drug Des. Discov., 16, 217 (1999)] • [^3H]PSB-11 (new antagonistic radioligand for human A3 ARs) [M. Dieckmann, M. Thorand, V. Ozola, C. E. Muiller, in Vorbereitung [Preparation] (2001)]. • [^125I]AB-MECA (for rat-A3 ARs) [Olah et al., Mol. Pharmacol., 45, 978 (1994)]. Description of the Assays That are Used for Testing Substances Production of Tissue Preparations Made from Rat Brains
In addition, A28-adenosine receptor membranes are prepared, whereby, for example, finished prepared membranes of HEK cells, which express the human A2B-receptor in high density (about 4 pmol/mg of protein), were available commercially (Receptor Biology USA via Perkin Elmer Life Sciences, Cologne, Germany).
The test substances are dissolved in DMSO to 10 mmol. The final concentration of DMSO in the assay is 2.5% for A1- and A2A-adenosine receptor assays and 1-2% for A2B- and A3-assays. Dilution series of the test substances are produced from the stock solution. Five to eight different test concentrations, which comprise 3 orders of magnitude (e.g., 1 nm to 1000 nm), are used. […]
(§3) The mean value is calculated from three independent experiments. IC50 and K, values are obtained from the Cheng-Prusoff equation, the concentration and the KD value of the radioligand. For calculation, the program GraphPadPrism™, Version 3.0 (GraphPad, San Diego, Calif., USA), was used.

For a further experiment, the target named is T2, A1 adenosine receptor (Rattus norvegicus, UniProt P25099).
T2 sequence (P25099 1-326): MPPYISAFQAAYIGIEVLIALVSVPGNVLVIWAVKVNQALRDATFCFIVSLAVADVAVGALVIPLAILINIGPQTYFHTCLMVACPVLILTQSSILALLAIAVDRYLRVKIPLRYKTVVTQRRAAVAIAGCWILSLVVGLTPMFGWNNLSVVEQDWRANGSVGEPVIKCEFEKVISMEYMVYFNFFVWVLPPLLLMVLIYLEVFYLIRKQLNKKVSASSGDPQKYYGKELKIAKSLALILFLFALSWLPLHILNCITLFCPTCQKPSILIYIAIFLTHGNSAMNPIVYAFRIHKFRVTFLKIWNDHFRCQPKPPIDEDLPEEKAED
The experiment in a line: Radioligand binding with [3H]CCPA on A1-adenosine receptors, rat brain cortex membranes. On the set-up: tissue Pel Freez Company (Rogers, Ark., USA); host or cells: rat brain cerebral cortex membranes. The settings on record: for pKi: Table 2, [3H]CCPA, read-out: A1 K1.
Description: as §1, §2
For the preparations, deep-frozen rat brains of the Pel Freez Company (Rogers, Ark., USA) are used. The rat brains are thawed in 0.32 M saccharose solution, the cortex is cut off, and the striata are prepared outside.
The cell decomposing of the cerebral cortex is carried out with a glass-Teflon homogenizer (stages 5-6, 10 seconds) in 0.32 M saccharose solution. The membranes are purified over various centrifuging steps. With centrifuging at 600 g, 4° C., for 10 minutes, a large amount of cell debris is separated via the P1 fraction, and the supernatant (P2 fraction) is further worked up: in the subsequent three centrifuging steps (35,000 g; 4° C.; 60 minutes), a pellet is produced that is resuspended in 50 mmol of TRIS buffer, pH 7.4 with the Ultraturrax (stages 3-4, 3 seconds); the respective supernatant is discarded. The striata are added to cold TRIS buffer, homogenized with the Ultraturrax in stages 3 to 4-(3 seconds) and then centrifuged at 35,000 g, 4° C., for 20 minutes. The supernatant is discarded, and the pellet is resuspended in 50 mmol of TRIS buffer (50 mmol, pH 7.4). The washing process is repeated twice more. The membrane preparations are stored at −80° C. and are held for several months. The cerebral cortex membrane preparation is used for A1-radioligand binding studies, and the striatum is used for A2A-radiologiand binding studies.
The test substances are dissolved in DMSO to 10 mmol. The final concentration of DMSO in the assay is 2.5% for A1- and A2A-adenosine receptor assays and 1-2% for A2B- and A3-assays. Dilution series of the test substances are produced from the stock solution. Five to eight different test concentrations, which comprise 3 orders of magnitude (e.g., 1 nm to 1000 nm), are used.
Radioligand Binding Studies with [^3H]CCPA on A1-Adenosine Receptors:
The mixture is incubated for 90 minutes in an oscillating water bath at 23° C. Then, it is filtered off with a Brandel cell-harvester and washed twice more with ice-cooled TRIS buffer, 50 mmol, pH 7.4 (3 ml). The filter plates are conveyed in scintillation vials, doused with 2.5 ml of Ultima Gold Scintillation cocktail and incubated for at least 6 hours before they are measured in a scintillation counter.
as §3

pKi: −log10 of the molar value.

With `Clc1cc(-c2nc3ccccc3n3nnnc23)n[nH]1` [Y = N, R5 = H, R6 = Cl, 4-[3(5)-Chloro-1H-pyrazol-5(3)-yl]tetrazolo[1,5-a]quinoxaline], on human A2B-receptor, the “A2B % inhib. @ 1 μmol” value was “(13%)” and the pKi is below 6.00. Besides, the pKi at A1 adenosine receptor is 6.17.
As to `Clc1cc(-c2nc3ccccc3n3cnnc23)[nH]n1` [Y = C—H, R5 = H, R6 = Cl], on human A2B-receptor, the “A2B % inhib. @ 1 μmol” value was “(0%)” and the pKi is below 6.00. At A1 adenosine receptor, the “A1 % inhib. @ 10 μmol” value is “(35%)” and the pKi was below 5.00.
Turning to `Clc1cc(-c2nc3ccccc3n3c(-c4ccoc4)nnc23)n[nH]1` [Y = C-(3-Furyl), R5 = H, R6 = Cl], on human A2B-receptor, the “A2B % inhib. @ 1 μmol” value is listed as “(25%)” and the pKi was below 6.00. For the same molecule, the pKi on A1 adenosine receptor was 6.49.
In the case of `Cn1nc(-c2nc3ccccc3n3c(Cc4cccs4)nnc23)cc1Cl` [Y = C—CH2-(2-Thienyl), R5 = CH3, R6 = Cl, 4-(5-Chloro-1H-1-methyl-pyrazol-3-yl)-1-(2-thienylmethyl)-[1,2,4]triazolo[4,3-a]-quinoxaline], the “A2B % inhib. @ 1 μmol” value on human A2B-receptor is “(22%)”. For the same molecule, the pKi on human A2B-receptor is below 6.00; at A1 adenosine receptor it was 6.68.
Take `COc1ccc2c(c1)nc(-c1cc(Cl)[nH]n1)c1nncn12` [Y = C—H, R3 = OCH3, R5 = H, R6 = Cl, 4-[3(5)-Chloro-1H-pyrazol-5(3)-yl]-7-methoxy-[1,2,4]triazolo[4,3-a]-quinoxaline]: on human A2B-receptor, the “A2B % inhib. @ 1 μmol” value is recorded as “(8%)” and the pKi is below 6.00. On A1 adenosine receptor, the “A1 % inhib. @ 10 μmol” value is recorded as “(13%)” and the pKi is below 5.00.
Regarding `COc1ccc2c(c1)nc(-c1cc(Cl)n[nH]1)c1nnc(Cc3cccs3)n12` [4-[3(5)-Chloro-1H-pyrazol-5(3)-yl]-7-methoxy-1-(2-thienylmethyl)-[1,2,4]triazolo[4,3-a]-quinoxaline], at human A2B-receptor, the “A2B % inhib. @ 1 μmol” value is listed as “(0%)” and the pKi was below 6.00. Besides, on A1 adenosine receptor, the pKi is 6.05.
Regarding “4-(chloropyrazolyl)-1-(3-phenylpropyl)-[1,2,4-]triazolo[4,3-a]quinoxaline [Y = C—CH2—CH2—CH2-Ph, R5 = H, R6 = Cl]”, on human A2B-receptor, the “A2B % inhib. @ 1 μmol” value was “(18%)” and the pKi is below 6.00. In addition, on A1 adenosine receptor, the pKi was 8.22.
